Active and inactive are the calls of the source. The calls are words filed in the database; no cut-off is given here.
How the values were obtained:
[1] = species on record: Rattus norvegicus; assay: Pharmacological potency relative to indomethacin for prodrug candidate by adjuvant-induced arthritis assay; type: functional
[2] = molecular target: T1, Cyclooxygenase (Rattus norvegicus, UniProt P35355+Q63921)
T1 sequence (P35355 whole entry): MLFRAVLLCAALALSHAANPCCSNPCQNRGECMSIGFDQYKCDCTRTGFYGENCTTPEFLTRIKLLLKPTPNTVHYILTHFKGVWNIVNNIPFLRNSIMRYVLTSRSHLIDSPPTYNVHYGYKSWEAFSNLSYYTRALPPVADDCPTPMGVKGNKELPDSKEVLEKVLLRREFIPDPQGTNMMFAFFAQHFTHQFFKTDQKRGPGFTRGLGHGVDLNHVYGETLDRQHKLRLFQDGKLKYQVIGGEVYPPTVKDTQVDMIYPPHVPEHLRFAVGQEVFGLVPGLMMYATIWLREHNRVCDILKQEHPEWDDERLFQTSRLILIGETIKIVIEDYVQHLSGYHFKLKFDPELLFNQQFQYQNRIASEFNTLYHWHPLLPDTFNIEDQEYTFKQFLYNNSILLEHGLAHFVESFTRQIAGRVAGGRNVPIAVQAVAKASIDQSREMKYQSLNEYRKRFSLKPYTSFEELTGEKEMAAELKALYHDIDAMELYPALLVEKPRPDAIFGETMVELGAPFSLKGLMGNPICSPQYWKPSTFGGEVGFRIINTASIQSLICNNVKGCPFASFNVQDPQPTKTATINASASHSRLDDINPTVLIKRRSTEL
T1 sequence (Q63921 whole entry): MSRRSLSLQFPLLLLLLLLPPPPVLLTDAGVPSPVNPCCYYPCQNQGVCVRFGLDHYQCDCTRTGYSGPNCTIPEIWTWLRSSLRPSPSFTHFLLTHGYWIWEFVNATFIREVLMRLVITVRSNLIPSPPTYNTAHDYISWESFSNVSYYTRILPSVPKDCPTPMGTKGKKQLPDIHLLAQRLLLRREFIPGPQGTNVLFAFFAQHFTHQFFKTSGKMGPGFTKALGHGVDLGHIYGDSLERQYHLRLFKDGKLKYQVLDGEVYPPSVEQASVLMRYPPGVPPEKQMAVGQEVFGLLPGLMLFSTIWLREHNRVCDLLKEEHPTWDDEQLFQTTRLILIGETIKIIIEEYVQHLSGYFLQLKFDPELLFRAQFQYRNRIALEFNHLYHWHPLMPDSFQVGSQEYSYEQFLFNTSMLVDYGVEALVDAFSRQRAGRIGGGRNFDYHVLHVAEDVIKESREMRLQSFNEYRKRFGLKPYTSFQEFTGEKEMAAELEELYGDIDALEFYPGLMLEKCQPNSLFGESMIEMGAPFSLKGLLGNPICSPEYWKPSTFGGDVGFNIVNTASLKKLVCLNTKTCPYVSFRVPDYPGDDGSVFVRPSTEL

[3] = Antiinflammatory activity was tested in Pleural effusion rate assay and the percent change in average volume of pleural fluid at the dose of 316 mg/kg; Inactive
[4] = (§1) Potency in adjuvant-induced arthritis assay/ potency in intestinal toxicity assay.; conditions: read-out: Therapeutic index
[5] = test system: Rattus norvegicus; assay: Antiinflammatory activity was tested in Pleural effusion rate assay for and the percent change in average volume of pleural fluid at the dose of 4.0 mg/kg; type: functional
[6] = molecular target: Prostaglandin G/H synthase 1 (Ovis aries) (UniProt P05979); assay: Inhibitory activity against Prostaglandin G/H synthase
[7] = species on record: Rattus norvegicus; assay: as §1; type: functional
[8] = species on record: Rattus norvegicus; assay: potency in adjuvant-induced arthritis assay/ potency in intestinal toxicity assay.; type: functional

SMILES | IC50 [2] [mM] | Potency [1] | Therapeutic index [7] | also measured
CC(=O)Nc1c(CC(=O)O)cccc1C(=O)c1ccccc1 | – | – | – | Change [3]: inactive
O=C(O)Cc1cccc(C(=O)c2ccc(Cl)cc2)c1[N+](=O)[O-] | – | 1.7 | – | selectivity ratio [4]: 3.4; Change [5]: -21%; IC50 [6]: > 1 mM
Nc1c(CCO)cccc1C(=O)c1ccc(Cl)cc1 | > 1 | 0.8 | 3.3 | –
CCOC(=O)Cc1cccc(C(=O)c2ccc(Cl)cc2)c1NC(=O)C(F)(F)F | > 1 | 1 | 3.3 | –
Nc1c(CCO)cccc1C(O)c1ccccc1 (stereo unspecified) | > 0.5 | 0.005 | – | –
Nc1c(CCO)cccc1C(O)c1ccc(Cl)cc1 (stereo unspecified) | > 1 | 0.05 | – | –
Nc1c(CC(=O)[O-])cccc1C(=O)C1CCCCC1.[Na+] | – | 0.004 | – | –
O=C1Cc2cccc(C(=O)c3ccc(Cl)cc3)c2N1 | – | – | – | Change [3]: inactive
O=C(O)Cc1cccc2c(-c3ccc(Cl)cc3)onc12 | > 0.5 | 1 | – | Therapeutic index [8]: 1
N#CCc1cccc(C(=O)c2ccc(Cl)cc2)c1N | – | – | – | Change [3]: inactive
Nc1c(C(=O)CCC(=O)O)cccc1C(=O)c1ccc(Cl)cc1 | > 1 | 0.9 | 3 | –
CC(=O)c1cccc(C(=O)c2ccccc2)c1N | – | – | – | Change [3]: inactive
Nc1c(CC(=O)[O-])cccc1C(O)c1ccccc1.[Na+] (stereo unspecified) | > 1 | 0.001 | – | –
Nc1c(CC(=O)[O-])cccc1C(=O)c1ccc(Cl)cc1.[Na+] | 0.0001 | 2.2 | 1.6 | –
CCOC(=O)Cc1cccc(C(=O)c2ccc(Cl)cc2)c1N | 0.073 | 1 | 1.7 | –
NC(=O)Cc1cccc(C(=O)c2ccc(Cl)cc2)c1N | > 1 | 0.8 | 10 | –
COc1ccc2c(c1)c(CC(=O)O)c(C)n2C(=O)c1ccc(Cl)cc1 [INDOMETHACIN] | – | 1 | – | –
Nc1c(CC(=O)[O-])cccc1C(O)c1ccc(Cl)cc1.[Na+] (stereo unspecified) | > 1 | 0.002 | – | –
O=C1Cc2cccc(C(=O)c3ccccc3)c2N1 | – | – | – | Change [3]: inactive

Second part, led by results:

IC50 [2] [mM] | SMILES | Potency [1] | Therapeutic index [7] | also measured
> 1 | CN(C)c1c(CC(=O)O)cccc1C(=O)c1ccccc1 | 0.009 | – | –
> 0.1 | NC(=O)Cc1cccc(C(=O)c2ccccc2)c1N | 0.09 | – | –
> 1 | O=C(O)Cc1cccc(C(=O)c2ccccc2)c1[N+](=O)[O-] | 0.5 | 5 | –
0.05 | CCOC(=O)Cc1cccc(C(=O)c2ccccc2)c1N | 0.3 | 0.4 | –
0.0001 | Nc1c(CC(=O)[O-])cccc1C(=O)c1ccccc1.[Na+] [AMFENAC SODIUM] | 1.1 | 2.8 | –
> 1 | O=C(O)Cc1cccc2c(-c3ccccc3)onc12 | 0.6 | 2.5 | –
> 0.1 | Nc1c(CCO)cccc1C(=O)c1ccccc1 | 0.05 | – | –
> 1 | Nc1c(C(=O)CCC(=O)O)cccc1C(=O)c1ccccc1 | 0.4 | 2.5 | –

Source: ChEMBL document CHEMBL1124887, “Antiinflammatory agents. 4. Syntheses and biological evaluation of potential prodrugs of 2-amino-3-benzoylbenzeneacetic acid and 2-amino-3-(4-chlorobenzoyl)benzeneacetic acid” (J Med Chem, 1990)
